pIC50: −log10 of the molar value. In brackets after ≈: the same amount, converted by molar mass.
Legend:
COX-2 = biological target: T1, COX-2 (Homo sapiens, UniProt P35354); test: fluorometric COX-2 inhibitor screening kit assay; type: biochemical; conditions: 25 °C
T1 construct: purchased Biovision K547-100
T1 sequence (P35354 18-604): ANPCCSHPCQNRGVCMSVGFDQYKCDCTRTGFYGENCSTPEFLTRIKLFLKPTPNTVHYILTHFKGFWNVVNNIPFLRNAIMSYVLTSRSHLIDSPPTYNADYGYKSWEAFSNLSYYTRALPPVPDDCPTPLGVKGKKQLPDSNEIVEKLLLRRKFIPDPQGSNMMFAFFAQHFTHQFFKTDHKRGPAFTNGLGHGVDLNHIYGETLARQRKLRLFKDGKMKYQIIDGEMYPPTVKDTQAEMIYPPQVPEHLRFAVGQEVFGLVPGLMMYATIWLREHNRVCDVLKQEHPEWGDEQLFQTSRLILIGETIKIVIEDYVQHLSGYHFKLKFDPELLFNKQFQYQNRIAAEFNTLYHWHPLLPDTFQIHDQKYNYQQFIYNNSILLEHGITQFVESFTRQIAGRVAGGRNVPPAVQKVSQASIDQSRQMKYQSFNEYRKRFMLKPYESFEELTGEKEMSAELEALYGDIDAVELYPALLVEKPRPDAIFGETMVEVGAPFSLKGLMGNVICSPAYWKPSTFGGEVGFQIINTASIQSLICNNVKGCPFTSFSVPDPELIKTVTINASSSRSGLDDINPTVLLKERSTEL
Procedure: Inhibitory potency of the compounds against COX-1 and COX-2 enzymes was determined using fluorometric COX-1 and COX-2 inhibitor screening kits (Biovision, Zurich, Switzerland). Experimental protocol was followed as described in the guides of the supplier[47]^,[48]. All of the pipettings in the assay were performed by Biotek Precision robotic system (BioTek Instruments, Inc., Winooski, VT). […] Appropriate two points (T1 and T2) in the linear range of the plot were chosen, and the corresponding fluorescence values (RFU1 and RFU2) were obtained. The slope for all samples, including enzyme control (EC), by dividing the net ΔRFU (RFU2–RFU1) values by the time ΔT (T2–T1) were calculated by using following equation: % Relative inhibition=(Slope of EC-Slope of S/Slope of EC)×100
This initial in vitro assay was done with two concentrations (10^−3 and 10^−4 M) for all compounds. […] The IC50 value was calculated from the plots of enzyme activity against concentrations by applying regression analyses on GraphPad Prism Version 5 (GraphPad Software, La Jolla, CA).
Selectivity indexes (SI) were expressed as IC50 (COX-1)/IC50 (COX-2). Selectivity toward COX-2 decreases as the corresponding SI decreases while selectivity toward COX-1 isoform increases as the corresponding SI decreases.

[1] = system: Candida krusei (ATCC 6258); test: broth dilution MIC (EUCAST EDef 7.1), resazurin; type: cell-based; conditions: Pichia kudriavzevii, ATCC6258, 24 h
Procedure: (§1) Microbiological studies were performed according to following guides: CLSI reference […]-A9 broth microdilution method[49] for bacterial strains and EUCAST definitive (EDef 7.1) method[50] for Candida species. Synthesized compounds were tested for their in vitro growth inhibitory activity against Staphylococcus aureus (ATCC 25923), Enterococcus faecalis (ATCC 29212), Listeria monocytogenes (ATCC 1911), Klebsiella pneumoniae (NCTC 9633), Escherichia coli (ATCC 35218), E. coli (ATCC 25922) Candida albicans (ATCC 24433) Candida krusei (ATCC 6258) and Candida parapsilosis (ATCC 22019). Chloramphenicol and ketoconazole were used as control drugs. The cultures were obtained from the Mueller-Hinton broth (Difco) for the bacterial strains after overnight incubation at 37 °C. The yeasts were maintained in Roswell Park Memorial Institute (RPMI) after overnight incubation at 37 °C. […] Testing was carried out in Mueller-Hinton broth and RPMI at pH =7, and the two-fold serial dilutions technique was applied. The last well on the microplates containing only inoculated broth was kept as controls and the last well with no growth of microorganism was recorded to represent the minimum inhibitory concentration (MIC) expressed in μg/mL. For both the antibacterial and antifungal assays, the compounds were dissolved in DMSO. […] The completed plates were incubated for 24 h. At the end of the incubation, resazurin (20 μg/mL) was added into each well and plates were incubated for 2 h. MIC values were determined using a microplate reader at […]. Synthesized compounds (6a-6m) were evaluated for antimicrobial activity against various microorganisms such as Staphylococcus aureus (ATCC 25923), Enterococcus faecalis (ATCC 29212), Listeria monocytogenes (ATCC 1911), Klebsiella pneumoniae (NCTC 9633), Escherichia coli (ATCC 35218), E. coli (ATCC 25922)Candida albicans (ATCC 24433) Candida krusei (ATCC 6258) and Candida parapsilosis (ATCC 22019). […] Chloramphenicol and ketoconazole were used as standard drugs in the activity test. […] Besides, the compounds 6d, 6h, 6l and 6m indicated stronger antibacterial activity than the other compounds in the series.

[2] = system: Candida albicans (ATCC 24433); test: broth dilution MIC (EUCAST EDef 7.1), resazurin; type: cell-based; conditions: ATCC24433, 24 h
Procedure: as §1

[3] = system: Candida parapsilosis (ATCC 22019); test: broth dilution MIC (EUCAST EDef 7.1), resazurin; type: cell-based; conditions: ATCC22019, 24 h
Procedure: as §1

[4] = system: NIH/3T3 mouse embryonic fibroblast cell line; test: MTT cytotoxicity test
Procedure: (§2) NIH/3T3 cells were incubated according to the supplier’s recommendations. NIH/3T3 cells were seeded at 1 × 10^4 cells into each well of 96-well plates. MTT assay was performed as previously described[51]^,[52].
(§3) There are a number of requirements to be fulfilled for successful new drug development. […] This assay is based upon the reduction of yellow MTT dye by metabolically active eukaryotic and prokaryotic cells to form the purple formazan product. The assay is generally used to examine cell viability and to estimate cell culture growth[66]^,[67].

MTT cytotoxicity test = conditions: mouse, NIH/3T3 mouse embryonic fibroblast cells
Procedure: as §2, §3

Structure (SMILES)	IC50 (COX-2) [µM]	MIC [1] [µg/mL]	MIC [2] [µg/mL]	MIC [3] [µg/mL]	fold by which IC50 against COX enzymes is lower than IC50 against NIH/3T3 cells [4]	pIC50 (MTT cytotoxicity test)
COc1ccc2sc(SCc3ccc(C(C)C(=O)O)cc3)nc2c1 (stereo not drawn) [Compound 6h, 2-(4-(((5-Methoxybenzo[d]thiazol-2-yl)thio)methyl)phenyl)propanoic acid]	2.96	100 (≈ 278 µM)	50 (≈ 139 µM)	50 (≈ 139 µM)	about 500 fold	≤ 3.00
COc1ccc2[nH]c(SCc3ccc(C(C)C(=O)O)cc3)nc2c1 (stereo not drawn) [Compound 6l, 2-(4-(((5-Methoxy-1H-benzo[d]imidazol-2-yl)thio)methyl)phenyl)propanoic acid]	2.34	50 (≈ 146 µM)	50 (≈ 146 µM)	50 (≈ 146 µM)	about 500 fold	≤ 3.00

Source: PMC6445163, “Design, synthesis, and evaluation of novel 2-phenylpropionic acid derivatives as dual COX inhibitory-antibacterial agents” (Journal of Enzyme Inhibition and Medicinal Chemistry, 2017)
